# Data from patent US10533010B2, “Substituted indole Mcl-1 inhibitors” (Vanderbilt University, priority 2014, dated 2020).
# Molecular target: recombinant Mcl-1 (residues 172-327) (Homo sapiens (Human), UniProt Q07820)
# Assay: Fluorescence polarization anisotropy competition assay (FITC-Bak or FITC-Bim BH3 peptide) with Mcl-1
# Type: binding
# Conditions: Table 2; Ki bins given in nM; FITC-Bak or FITC-Bim peptide competition; Ki converted from IC50; read-out: Ki for Inhibition of Mcl-1
# recombinant Mcl-1 (residues 172-327), sequence (Q07820 172-327): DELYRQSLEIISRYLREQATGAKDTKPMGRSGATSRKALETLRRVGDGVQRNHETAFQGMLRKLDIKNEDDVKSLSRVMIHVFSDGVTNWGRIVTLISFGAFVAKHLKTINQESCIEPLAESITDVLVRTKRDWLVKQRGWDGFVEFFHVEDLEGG
row,Ki [nM],Structure (SMILES)
1,< 50,"Cc1cc(OCCCc2c(C(=O)Nc3cc(C(=O)O)c4cc[nH]c4c3)[nH]c3c(-c4c(C)nn(C)c4C)c(Cl)ccc23)cc(C)c1Cl [I-238, 6-(6-chloro-3-(3-(4-chloro-3,5-dimethylphenoxy)propyl)-7-(1,3,5-trimethyl-1H-pyrazol-4-yl)-1H-indole-2-carboxamido)-1H-indole-4-carboxylic acid]"
2,< 50,"Cc1ccncc1-c1cc(C(=O)O)cc(N2CCCn3c(c(CCCOc4cc(C)c(Cl)c(C)c4)c4ccc(Cl)c(-c5c(C)nn(C)c5C)c43)C2=O)c1 [I-234, 3-(8-chloro-11-(3-(4-chloro-3,5-dimethylphenoxy)propyl)-1-oxo-7-(1,3,5-trimethyl-1H-pyrazol-4-yl)-4,5-dihydro-1H-[1,4]diazepino[1,2-a]indol-2(3H)-yl)-5-(4-methylpyridin-3-yl)benzoic acid]"
3,< 50,"Cc1nn(C)c(C)c1-c1cccc2c(CCCOc3cccc4ccccc34)c(C(=O)Nc3cccc(C(=O)O)c3)[nH]c12 [I-193, 3-(3-(3-(naphthalen-1-yloxy)propyl)-7-(1,3,5-trimethyl-1H-pyrazol-4-yl)-1H-indole-2-carboxamido)benzoic acid]"
4,< 50,"Cc1cc(OCCCc2c(C(=O)Nc3cc(C(=O)O)cc(N(C)C)c3)[nH]c3c(-c4c(C)nn(C)c4C)c(Cl)ccc23)cc(C)c1Cl [I-215, 3-(6-chloro-3-(3-(4-chloro-3,5-dimethylphenoxy)propyl)-7-(1,3,5-trimethyl-1H-pyrazol-4-yl)-1H-indole-2-carboxamido)-5-(dimethylamino)benzoic acid]"
5,< 50,"Cc1cc(OCCCc2c3n(c4c(-c5c(C)nn(C)c5C)c(Cl)ccc24)[C@H](C)CN(c2ccc(C(=O)O)cc2)C3=O)cc(C)c1Cl [I-172, (R)-4-(7-chloro-10-(3-(4-chloro-3,5-dimethylphenoxy)propyl)-4-methyl-1-oxo-6-(1,3,5-trimethyl-1H-pyrazol-4-yl)-3,4-dihydropyrazino[1,2-a]indol-2(1H)-yl)benzoic acid]"
6,< 50,"Cc1cc(OCCCc2c(C(=O)NCc3cc(C(=O)O)c(C)o3)[nH]c3c(-c4c(C)nn(C)c4C)cccc23)cc(C)c1Cl [I-273, 5-((3-(3-(4-chloro-3,5-dimethylphenoxy)propyl)-7-(1,3,5-trimethyl-1H-pyrazol-4-yl)-1H-indole-2-carboxamido)methyl)-2-methylfuran-3-carboxylic acid]"

row,Structure (SMILES),Ki [nM]
1,"Cc1cc(OCCCc2c(C(=O)NCCS(=O)(=O)NC(=O)C34CC5CC(CC(C5)C3)C4)[nH]c3ccccc23)cc(C)c1Cl [I-55, N-(2-(N-((3r,5r,7r)-adamantane-1-carbonyl)sulfamoyl)ethyl)-3-(3-(4-chloro-3,5-dimethylphenoxy)propyl)-1H-indole-2-carboxamide]",301 to 500
2,"Cc1cc(OCCCc2c3n(c4c(-c5c(C)nn(C)c5C)c(Cl)ccc24)CCCN(Cc2cc(C(=O)O)cc(-c4ccc(OCc5ccccc5C(F)(F)F)cc4)c2)C3=O)cc(C)c1Cl [I-308, 5-((8-chloro-1-(3-(4-chloro-3,5-dimethylphenoxy)propyl)-1-oxo-7-(1,3,5-trimethyl-1H-pyrazol-4-yl)-4,5-dihydro-1H-[1,4]diazepino[1,2-a]indol-2(3H)-yl)methyl)-4′-((2-(trifluoromethyl)benzyl)oxy)-[1,1′-biphenyl]-3-carboxylic acid]",51 to 100
3,"Cc1cc(OCCCc2c(C(=O)NCCC(=O)NS(=O)(=O)c3cccnc3)[nH]c3ccccc23)cc(C)c1Cl [I-15, 3-(3-(4-chloro-3,5-dimethylphenoxy)propyl)-N-(3-oxo-3-(pyridine-3-sulfonamido)propyl)-1H-indole-2-carboxamide]",101 to 299

# Same assay, conditions: Table 2; Ki bins given in μM; FITC-Bak or FITC-Bim peptide competition; Ki converted from IC50; read-out: Ki for Inhibition of Mcl-1
row,Structure (SMILES),Ki [nM]
1,"Cc1cc(OCCCc2c(C(=O)N3CCN(c4ccccc4)CC3)[nH]c3ccccc23)cc(C)c1Cl [I-46, (3-(3-(4-chloro-3,5-dimethylphenoxy)propyl)-1H-indol-2-yl)(4-phenylpiperazin-1-yl)methanone]",1000 to 9990
